According to patent US8987195B2 (priority 2012, dated 2015):
Like-named read-outs stand apart in the source and are kept apart here.

Tests used:
HCV genotype 1b replicon = test: HCV replicon assay, genotype 1b replicon EC50; format: cell-based, Hepatitis C virus; details: Hepatitis C virus, genotype 1b replicon, read-out: EC50 [gt-1b]
Method: Measuring Compound Inhibitory Potency (Genotype 1b Replicon EC50 (nM))
Measurement of inhibition by compounds was performed using the HCV replicon system. Several different replicons encoding different HCV genotypes or mutations were used. In addition, potency measurements were made using different formats of the replicon assay, including different ways of measurements and different plating formats. See Jan M. Vrolijk et al., A replicons-based bioassay for the measurement of interferons in patients with chronic hepatitis C, 110 J. VIROLOGICAL METHODS 201 (2003); Steven S. Carroll et al., Inhibition of Hepatitis C Virus RNA Replication by 2′-Modified Nucleoside Analogs, 278(14) J. BIOLOGICAL CHEMISTRY 11979 (2003). However, the underlying principles are common to all of these determinations, and are outlined below.
Stable neomycin phosphotransferase encoding replicon-harboring cell lines were used, so all cell lines were maintained under G418 selection prior to the assay. In some cases the cell lines encoded a luciferase:Neo^r fusion and could be assayed either directly by determination of RNA copy number, or indirectly through measurement of the luciferase activity.
To initiate an assay, replicon cells were plated in the presence of a dilution series of test compound in the absence of G418. Typically, the assays were performed in a 96-well plate format for manual operation, or a 384 well plate in an automated assay. Replicon cells and compound were incubated for 24-48 hours, depending on the assay. At the end of the assay, cells are washed free of media and compound and then lysed. For direct quantitation, RNA levels were measured by ^32P-probe hybridization and protection, or in a TAQMAN based assay and normalized to cellular cyclophilin A RNA levels. In some cases, luciferase activity was measured using a conventional luciferase assay. In all cases EC50 determinations were calculated as a percent of a DMSO control by fitting the data to a four parameter fit function.

[1] = target: HCV NS3/4A protease genotype 1b (Hepatitis C virus genotype 1b, UniProt P26663); test: HCV NS3/4A protease time-resolved fluorescence (TRF) assay, Ki against genotype 1b; format: biochemical; details: IC50 [gt-1b] (nM), NS3/4A genotype 1b, enzyme 0.2 nM
Outline: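 NS3/4A enzyme was preincubated 30 min with inhibitor in 50 mM HEPES pH 7.5, 150 mM NaCl, 15% glycerol, 0.15% Triton X-100, 10 mM DTT, 0.1% PEG 8000; 25 nM europium TRF peptide substrate added, 2.5 h at room temperature. Enzyme: 0.2 nM (1b), 0.4 nM (A156T), 0.025 nM (3a). Ki from IC50 via Cheng-Prusoff.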

Row | Compound | EC50 (HCV genotype 1b replicon) | IC50 [1] | EC50 (HCV genotype 1b replicon; K+ salt) | IC50 ([1]; K+ salt)
1 | Cc1nc2ccc(OC(F)(F)F)cc2c2c1O[C@]1(CC2)C[C@H]2C(=O)N[C@]3(C(=O)NS(=O)(=O)C4(C)CC4)C[C@H]3/C=C\CCCCC[C@H](NC(=O)OC(C)(C)C)C(=O)N2C1 [Example 1, tert-butyl (2R,6S,13aS,14aR,16aS,Z)-5′-methyl-14a-(1-methylcyclopropylsulfonylcarbamoyl)-5,16-dioxo-9′-(trifluoromethoxy)-1′,2′,3,5,6,7,8,9,10,11,13a,14,14a,15, 16,16a-hexadecahydro-1H-spiro[cyclopropa[e]pyrrolo[1,2-a][1,4]diazacyclopentadecine-2,3′-pyrano[2,3-c]quinoline]-6-ylcarbamate] | 1.47 nM | 0.013 nM |  | 
2 | COc1ccc2nc(C(C)C)c3c(c2c1)CC[C@]1(C[C@H]2C(=O)N[C@]4(C(=O)NS(=O)(=O)C5(C)CC5)C[C@H]4/C=C\CCCCC[C@H](NC(=O)OC(C)(C)C)C(=O)N2C1)O3 [Example 2, tert-Butyl (2R,6S,13aS,14aR,16aS,Z)-5′-isopropyl-9′-methoxy-14a-(1-methylcyclopropylsulfonylcarbamoyl)-5,16-dioxo-1′,2′,3,5,6,7,8,9,10,11,13a,14,14a,15,16,16a-hexadecahydro-1H-spiro[cyclopropa[e]pyrrolo[1,2-a][1,4]diazacyclopentadecine-2,3′-pyrano[2,3-c]quinoline]-6-ylcarbamate] | 1.19 nM | 0.012 nM |  | 
3 | COc1ccc2nc(C(C)C)c3c(c2c1)C(F)(F)C[C@]1(C[C@H]2C(=O)N[C@]4(C(=O)NS(=O)(=O)C5(C)CC5)C[C@H]4/C=C\CCCCC[C@H](NC(=O)OC(C)(C)C)C(=O)N2C1)O3 [Example 3, tert-Butyl (2S,6S,13aS,14aR,16aS,Z)-1′,1′-difluoro-5′-isopropyl-9′-methoxy-14a-(1-methylcyclopropylsulfonylcarbamoyl)-5,16-dioxo-1′,2′,3,5,6,7,8,9,10,11,13a,14,14a, 15,16,16a-hexadecahydro-1H-spiro[cyclopropa[e]pyrrolo[1,2-a][1,4]diazacyclopentadecine-2,3′-pyrano[2,3-c]quinoline]-6-ylcarbamate] | 2.9 nM | 0.004 nM |  | 
4 | CC(C)(C)OC(=O)N[C@H]1CCCCC/C=C\[C@@H]2C[C@@]2(C(=O)NS(=O)(=O)C2(C)CC2)NC(=O)[C@@H]2C[C@]3(CCc4c(c(C(F)(F)F)nc5ccccc45)O3)CN2C1=O [Example 4, tert-Butyl (2R,6S,13aS,14aR,16aS,Z)-14a-(1-methylcyclopropylsulfonylcarbamoyl)-5,16-dioxo-5′-(trifluoromethyl)-1′,2′,3,5,6,7,8,9,10,11,13a,14,14a,15,16,16a-hexadecahydro-1H-spiro[cyclopropa[e]pyrrolo[1,2-a][1,4]diazacyclopentadecine-2,3′-pyrano[2,3-c]quinoline]-6-ylcarbamate] | 0.813 nM | 0.009 nM |  | 
5 | COc1ccc2nc(C(F)(F)F)c3c(c2c1)CC[C@]1(C[C@H]2C(=O)N[C@]4(C(=O)NS(=O)(=O)C5(C)CC5)C[C@H]4/C=C\CCCCC[C@H](NC(=O)OC(C)(C)C)C(=O)N2C1)O3 [Example 5, tert-Butyl (2R,6S,13aS,14aR,16aS,Z)-9′-methoxy-14a-(1-methylcyclopropylsulfonylcarbamoyl)-5,16-dioxo-5′-(trifluoromethyl)-1′,2′,3,5,6,7,8,9,10,11,13a,14,14a,15,16, 16a-hexadecahydro-1H-spiro[cyclopropa[e]pyrrolo[1,2-a][1,4]diazacyclopentadecine-2,3′-pyrano[2,3-c]quinoline]-6-ylcarbamate] | 1.36 nM | 0.015 nM |  | 
6 | CC(C)(C)OC(=O)N[C@H]1CCCCC/C=C\[C@@H]2C[C@@]2(C(=O)NS(=O)(=O)C2(C)CC2)NC(=O)[C@@H]2C[C@]3(CCc4c(c(C(F)(F)F)nc5ccc(OCCN6CCOCC6)cc45)O3)CN2C1=O [Example 7, tert-Butyl ((2R,6S,13aS,14aR,16aS,Z)-14a-(((1-methylcyclopropyl)sulfonyl)carbamoyl)-9′-(2-morpholinoethoxy)-5,16-dioxo-5′-(trifluoromethyl)-1′,2′,3,5,6,7,8,9,10, 11,13a,14,14a,15,16,16a-hexadecahydro-1H-spiro[cyclopropa[e]pyrrolo[1,2-a][1,4]diazacyclopentadecine-2,3′-pyrano[2,3-c]quinolin]-6-yl)carbamate] | 0.433 nM | 0.02 nM |  | 
7 | COc1ccc2nc(C(F)F)c3c(c2c1)CC[C@]1(C[C@H]2C(=O)N[C@]4(C(=O)NS(=O)(=O)C5(C)CC5)C[C@H]4/C=C\CCCCC[C@H](NC(=O)OC(C)(C)C)C(=O)N2C1)O3 [Example 10, tert-butyl ((2R,6S,13aS,14aR,16aS,Z)-5′-(difluoromethyl)-9′-methoxy-14a-(((1-methylcyclopropyl)sulfonyl)carbamoyl)-5,16-dioxo-1′,2′,3,5,6,7,8,9,10,11,13a,14,14a,15, 16,16a-hexadecahydro-1H-spiro[cyclopropa[e]pyrrolo[1,2-a][1,4]diazacyclopentadecine-2,3′-pyrano[2,3-c]quinolin]-6-yl)carbamate] |  |  | 1.11 nM | 0.013 nM
8 | COc1ccc2nc(C)c3c(c2n1)CC[C@]1(C[C@H]2C(=O)N[C@]4(C(=O)NS(=O)(=O)C5(C)CC5)C[C@H]4/C=C\CCCCC[C@H](NC(=O)OC(C)(C)C)C(=O)N2C1)O3 [Example 11, tert-butyl (2R,6S,13aS,14aR,16aS,Z)-2′-methoxy-6′-methyl-14a-(1-methylcyclopropylsulfonylcarbamoyl)-5,16-dioxo-3,5,6,7,8,9,9′,10,10′,11,13a,14,14a,15,16,16a-hexadecahydro-1H-spiro[cyclopropa[e]pyrrolo[1,2-a][1,4]diazacyclopentadecine-2,8′-pyrano[2,3-c][1,5]naphthyridine]-6-ylcarbamate] | 2.71 nM | 0.007 nM |  | 
9 | COc1ccc2nc(C3CC3)c3c(c2c1)C(F)(F)C[C@]1(C[C@H]2C(=O)N[C@]4(C(=O)NS(=O)(=O)C5(C)CC5)C[C@H]4/C=C\CCCCC[C@H](NC(=O)OC(C)(C)C)C(=O)N2C1)O3 [Example 19, tert-Butyl (2S,6S,13aS,14aR,16aS,Z)-5′-cyclopropyl-1′,1′-difluoro-9′-methoxy-14a-(1-methylcyclopropylsulfonylcarbamoyl)-5,16-dioxo-1′,2′,3,5,6,7,8,9,10,11,13a,14,14a, 15,16,16a-hexadecahydro-1H-spiro[cyclopropa[e]pyrrolo[1,2-a][1,4]diazacyclopentadecine-2,3′-pyrano[2,3-c]quinoline]-6-ylcarbamate] |  |  | 1.98 nM | 0.018 nM
10 | COc1ccc2nc(C)c3c(c2c1)C(F)(F)C[C@]1(C[C@H]2C(=O)N[C@]4(C(=O)NS(=O)(=O)C5(C)CC5)C[C@H]4/C=C\CCCCC[C@H](NC(=O)OC(C)(C)C)C(=O)N2C1)O3 [Example 20, tert-Butyl (2S,6S,13aS,14aR,16aS,Z)-1′,1′-difluoro-9′-methoxy-5′-methyl-14a-(1-methylcyclopropylsulfonylcarbamoyl)-5,16-dioxo-1′,2′,3,5,6,7,8,9,10,11,13a,14,14a,15, 16,16a-hexadecahydro-1H-spiro[cyclopropa[e]pyrrolo[1,2-a][1,4]diazacyclopentadecine-2,3′-pyrano[2,3-c]quinoline]-6-ylcarbamate] |  |  | 1.78 nM | 0.009 nM
11 | Cc1nc2ccccc2c2c1O[C@@]1(C[C@H]3C(=O)N[C@]4(C(=O)NS(=O)(=O)C5(C)CC5)C[C@H]4/C=C\CCCCC[C@H](NC(=O)OC(C)(C)C)C(=O)N3C1)CC2(F)F [Example 25, tert-Butyl (2S,6S,13aS,14aR,16aS,Z)-1′,1′-difluoro-5′-methyl-14a-(1-methylcyclopropylsulfonylcarbamoyl)-5,16-dioxo-1′,2′,3,5,6,7,8,9,10,11,13a,14,14a,15,16,16a-hexadecahydro-1H-spiro[cyclopropa[e]pyrrolo[1,2-a][1,4]diazacyclopentadecine-2,3′-pyrano[2,3-c]quinoline]-6-ylcarbamate] | 1.11 nM | 0.016 nM |  | 
12 | Cc1nc2ccccc2c2c1O[C@]1(C=C2)C[C@H]2C(=O)N[C@]3(C(=O)NS(=O)(=O)C4CC4)C[C@H]3/C=C\CCCCC[C@H](NC(=O)OC(C)(C)C)C(=O)N2C1 [Example 26, tert-Butyl (2S,6S,13aS,14aR,16aS,Z)-14a-(cyclopropylsulfonylcarbamoyl)-5′-methyl-5,16-dioxo-3,5,6,7,8,9,10,11,13a,14,14a,15,16,16a-tetradecahydro-1H-spiro [cyclopropa[e]pyrrolo[1,2-a][1,4]diazacyclopentadecine-2,3′-pyrano[2,3-c]quinoline-]-6-ylcarbamate] | 1.34 nM | 0.013 nM |  | 
